From patent US20070244103A1, “Novel Compounds Having an Anti-Bacterial Activity” (Morphochem Aktiengesellschaft Fur Kombinatorische Chemie, priority 2004, published 2007)

Test: MIC of the examples against various organisms
Type: cell-based
Details: against at least two of the above organisms (12-strain panel)
Description: The MIC (μg/ml) of the examples against various organisms was determined: A. baumannii ATCC19606, E. cloacae ATCC23355, E. coli ATCC25922, K. pneumoniae ATCC27736, P. mirabilis ATCC29906, P. aeruginosa ATCC27853, S. maltophilia ATCC13637, S. aureus ATCC43300, S. epidermidis ATCC14990, S. haemolyticus ATCC29970, E. faecalis ATCC29212 and E. faecium ATC19434.

SMILES	MIC
COc1cnc2ccc(Cl)c(C(O)CN3CCCC(CNCc4ccc5c(c4)NC(=O)CO5)C3)c2n1 (stereo not shown) [Example 93, 6-[({1-[2-(6-Chloro-3-methoxy-quinoxalin-5-yl)-2-hydroxy-ethyl]-piperidin-3-ylmethyl}-amino)-methyl]-4H-benzo[1,4]oxazin-3-one]	≤ 2 µg/mL
COc1cnc2ccc(Cl)c(C(O)CN3CCCC(CNCc4ccc5c(c4)NC(=O)CS5)C3)c2n1 (stereo not shown) [Example 96, 6-[({1-[2-(6-Chloro-3-methoxy-quinoxalin-5-yl)-2-hydroxy-ethyl]-piperidin-3-ylmethyl}-amino)-methyl]-4H-benzo[1,4]thiazin-3-one]	≤ 2 µg/mL
COc1cnc2ccc(Cl)c(C(O)CN3CCCC(CNC/C=C/c4ccccc4)C3)c2n1 (stereo not shown) [Example 99, 1-(6-Chloro-3-methoxy-quinoxalin-5-yl)-2-{3-[((E)-3-phenyl-allylamino)-methyl]-piperidin-1-yl}-ethanol]	≤ 2 µg/mL
COc1cnc2cccc(NC(=O)C3CCCC(CNCc4ccc5c(n4)NC(=O)CS5)C3)c2n1 (stereo not shown) [Example 105, 3-{[(3-Oxo-3,4-dihydro-2H-pyrido[3,2-b][1,4]thiazin-6-ylmethyl)-amino]-methyl}-cyclohexanecarboxylic acid (3-methoxy-quinoxalin-5-yl)-amide]	≤ 2 µg/mL
COc1cnc2cccc(NC(=O)C3CCCC(CNCc4cc5c(cn4)OCCO5)C3)c2n1 (stereo not shown) [Example 107, 3-{[(2,3-Dihydro-[1,4]dioxino[2,3-c]pyridin-7-ylmethyl)-amino]-methyl}-cyclohexanecarboxylic acid (3-methoxy-quinoxalin-5-yl)-amide]	≤ 2 µg/mL
COc1ccc2cccc(NC(=O)C3CCCC(CNCc4ccc5c(n4)NC(=O)CS5)C3)c2n1 (stereo not shown) [Example 108, 3-{[(3-Oxo-3,4-dihydro-2H-pyrido[3,2-b][1,4]thiazin-6-ylmethyl)-amino]-methyl}-cyclohexanecarboxylic acid (2-methoxy-quinolin-8-yl)-amide]	≤ 2 µg/mL
COc1ccc2cccc(NC(=O)C3CCCC(CNCc4ccc5c(c4)NC(=O)CS5)C3)c2n1 (stereo not shown) [Example 112, 3-{[(3-oxo-3,4-dihydro-2H-benzo[1,4]thiazin-6-ylmethyl)-amino]-methyl}-cyclohexanecarboxylic acid (2-methoxy-quinolin-8-yl)-amide]	≤ 2 µg/mL

Further lines, results first:

MIC	SMILES
≤ 2 µg/mL	COc1cnc2ccc(Cl)c(C(O)CN3CCCC(CNCc4ccc5c(c4)OCO5)C3)c2n1 (stereo not shown) [Example 94, 2-(3-{[(Benzo[1,3]dioxol-5-ylmethyl)-amino]-methyl}-piperidin-1-yl)-1-(6-chloro-3-methoxy-quinoxalin-5-yl)-ethanol]
≤ 2 µg/mL	COc1cnc2ccc(Cl)c(C(O)CN3CCCC(CNCc4ccc5c(c4)OCCO5)C3)c2n1 (stereo not shown) [Example 95, 1-(6-Chloro-3-methoxy-quinoxalin-5-yl)-2-(3-{[(2,3-dihydro-benzo[1,4]dioxin-6-ylmethyl)-amino]-methyl}-piperidin-1-yl)-ethanol]
≤ 2 µg/mL	COc1cnc2ccc(Cl)c(C(O)CN3CCCC(CNCc4cc5c(cn4)OCCO5)C3)c2n1 (stereo not shown) [Example 97, 1-(6-Chloro-3-methoxy-quinoxalin-5-yl)-2-(3-{[(2,3-dihydro-[1,4]dioxino[2,3-c]-pyridin-7-ylmethyl)-amino]-methyl}-piperidin-1-yl)-ethanol]
≤ 2 µg/mL	COc1cnc2ccc(Cl)c(C(O)CN3CCCC(CNCc4cc5c(cc4F)SCC(=O)N5)C3)c2n1 (stereo not shown) [Example 98, 6-[({1-[2-(6-Chloro-3-methoxy-quinoxalin-5-yl)-2-hydroxy-ethyl]-piperidin-3-ylmethyl}-amino)-methyl]-7-fluoro-4H-benzo[1,4]thiazin-3-one]
≤ 2 µg/mL	COc1ccc2cccc(NC(=O)C3CCCC(CNCc4ccc5c(c4)OCCO5)C3)c2n1 (stereo not shown) [Example 110, 3-{[(2,3-Dihydro-benzo[1,4]dioxin-6-ylmethyl)-amino]-methyl}-cyclohexanecarboxylic acid (2-methoxy-quinolin-8-yl)-amide]
≤ 2 µg/mL	COc1ccc2cccc(NC(=O)C3CCCC(CNCc4cc5c(cn4)OCCO5)C3)c2n1 (stereo not shown) [Example 111, 3-{[(2,3-Dihydro-[1,4]dioxino[2,3-c]pyridin-7-ylmethyl)-amino]-methyl}-cyclohexanecarboxylic acid (2-methoxy-quinolin-8-yl)-amide]
